Results as given in US20240415918A1, “Polypeptide and its use as a CCK receptor agonist/antagonist” (Centre for Regenerative Medicine & Health, Hong Kong …, priority 2021, published 2024).
Read-outs that look alike come from different tables or passages of the source. Where a SMILES comes first, the peptide text is derived from it. [ ]: non-standard residue; d: D form. Phe(3-Br) = N[C@@H](Cc1cccc(Br)c1)C(=O)O; Nle = CCCC[C@H](N)C(=O)O

Columns and labels:
[1] = system: CCK-B receptor carrying green fluorescence; settings: intraperitoneal injection, visual cortex imaging
[2] = system: neocortex of memory-deficient mice; assay: Long-term potentiation, in vitro field potential recording of brain slices (MED64), memory-deficient mice; assay type: cell-based; settings: compound injected for five minutes
Excerpt: An in vitro electrophysiological electrical signal recording method was used to investigate whether compound HT-267, compound HT-177, and compound HT-178 can induce long-term potentiation in the neocortex of memory-deficient mice. The MED64 low-noise multi-electrode recording system was used to record the electrical signals of brain slices cultured in vitro.

[3] = molecular target: T1, CCK-B receptors (CHO-CCK) (Homo sapiens, UniProt P32239); assay: Calcium flux (Fluo-8) antagonist test on CHO-CCK model cells in presence of CCK8; assay type: cell-based
T1 construct: expressed in transfected cells; host or cells: CHO (CHO-CCK model cells)
T1 sequence (P32239 1-447): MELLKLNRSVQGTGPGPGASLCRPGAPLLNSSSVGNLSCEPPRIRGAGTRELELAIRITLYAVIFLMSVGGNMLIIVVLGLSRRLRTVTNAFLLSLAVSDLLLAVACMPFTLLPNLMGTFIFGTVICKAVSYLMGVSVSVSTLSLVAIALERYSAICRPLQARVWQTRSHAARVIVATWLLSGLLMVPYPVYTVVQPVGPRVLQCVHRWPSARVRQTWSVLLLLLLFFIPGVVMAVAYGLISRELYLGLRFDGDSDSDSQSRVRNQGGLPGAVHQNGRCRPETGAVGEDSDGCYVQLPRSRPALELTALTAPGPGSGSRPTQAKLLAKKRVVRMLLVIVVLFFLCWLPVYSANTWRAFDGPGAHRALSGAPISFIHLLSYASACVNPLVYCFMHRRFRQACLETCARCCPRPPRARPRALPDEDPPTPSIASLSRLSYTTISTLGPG

in vivo = settings: male, KM, mouse, iv, 1 mg/kg, T1/2
memory-deficient mice [4] = assay: Morris water maze, memory-deficient mice; assay type: in vivo; settings: intraperitoneal injection, CCK4 four times a day 10 days, HT compounds once a day 8 days
Excerpt: Adult memory-deficient mice were housed under standard conditions with free access to food and water. Our Morris water maze experiment for testing memory-deficient mice mainly included two parts: positioning navigation experiment and space exploration experiment. The experimental methods were the same as Example 5. We randomized memory-deficient mice into six groups, with the first group given intraperitoneal injection of the CCK4 solution, the second group given intraperitoneal injection of the solvent of CCK4 solution as a control, the third group given intraperitoneal injection of the compound HT-267 solution, the fourth group given intraperitoneal injection of the compound HT-177 solution, the fifth group given intraperitoneal injection of the compound HT-178 solution, and the sixth group given intraperitoneal injection of the solvent of compound solution as a control. In the positioning navigation experiment, the treatment and training methods of the first and the second groups were the same as those of the first and second groups in Example 5, that is, four times of treatment a day, four times of training a day, for a total of 10 days of training. The treatment and training methods of the third to sixth groups were the same as the third and fourth groups in Example 5, that is, one treatment a day, four times of training a day, for a total of 8 days of training. In the space exploration experiment, the spatial memory ability of mice was tested in the same way for each group.

[5] = Pharmacokinetics in KM mice after intravenous administration; settings: male, mouse, plasma, 1 mg/kg
memory-deficient mice [6] = assay: New object recognition experiment, memory-deficient mice; assay type: in vivo; settings: intraperitoneal injection
Excerpt: The new object recognition experiment is a highly validated method of cognitive memory, designed by Ennaceur & Delacour (1988) based on the exploration characteristics of rodents to new environments, and this model evaluates the memory function of the tested animal based on the length of time that the animal spends in exploring familiar objects it has seen in the environment and new objects it has not seen. […] The experiment is usually divided into three stages: 1. Adaptation period: let the animal be familiar with the experimental environment, and no objects are placed in the experimental box; 2. Familiarization period: place two identical objects in the experimental box and let the mice explore freely for 10 minutes; 3. Test period: put a new object in the experimental box to replace one of the old objects, and the positions of the objects remain unchanged. The exploration of mice was recorded with video, and the time spent in exploring the old and new objects by mice was analyzed, and the proportion of time spent in exploring the new object by mice in the test period accounting for the total time for exploring the objects was calculated, that is, the recognition index of new objects.
Adult memory-deficient mice were housed under standard conditions with free access to food and water. Our new object recognition experiment for testing memory-deficient mice mainly included the adaptation period, the familiarization period, and the test period. The experimental method was the same as Example 12.
We randomized memory-deficient mice into four groups, with one group given intraperitoneal injection of the solvent of drug as the control group, administration group 1 given intraperitoneal injection of the compound HT-267 solution, administration group 2 given intraperitoneal injection of the compound HT-177 solution, and administration group 3 given intraperitoneal injection of the compound HT-178 solution. After the adaptation and familiarization period training, we tested the recognition memory of several groups of mice in the test period experiment.

[7] = molecular target: T1, CCK-B receptors (CHO-CCK); assay: Calcium flux (Fluo-8) agonist test on CHO-CCK model cells; assay type: cell-based; settings: CHO-CCK cells
In short: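 Agonist-mode Fluo-8 calcium flux read on CHO-CCK cells after dye loading 30 min at 37 °C plus 30 min at room temperature.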

[8] = male, KM, mouse, in vivo, iv, 1 mg/kg
senile wild-type mice = assay: Morris water maze, senile wild-type mice; assay type: in vivo, mice (C57BL/6); settings: intraperitoneal injection
[9] = mouse, in vivo; cited from earlier work
[10] = system: tri-transgenic Alzheimer's mice (3×Tg-AD); assay: Morris water maze, Alzheimer's mice; assay type: in vivo; settings: intraperitoneal injection
Excerpt: Adult male tri-transgenic Alzheimer's mice (3×Tg-AD) were housed under standard conditions with free access to food and water. Our Morris water maze experiment for testing Alzheimer's mice mainly included two parts: positioning navigation experiment and space exploration experiment. The positioning navigation experiment lasted for 8-10 days, and the mice were put into the water four times a day from four entry points facing the pool wall, and the time they spent in finding the hidden platform under the water surface (evasion latency) was recorded. The space exploration experiment was to remove the platform after the positioning navigation experiment, and then put the mice into the pool, record their swimming tracks within one minute, investigate the memory of the mice on the original platform, and calculate the proportion of exploration duration of the mice in the quadrant where the original platform was located (target quadrant). Alzheimer's mice were confirmed to have memory deficiency in the Morris water maze experiment, showing not only a longer evasion latency for positioning the hidden platform in the positioning navigation experiment, but also a worse memory backtracking ability in the space exploration experiment. We randomized Alzheimer's mice into four groups, with the first group given intraperitoneal injection of the CCK4 solution, the second group given intraperitoneal injection of the solvent of CCK4 solution as a control, the third group given intraperitoneal injection of the compound HT-267 solution, and the fourth group given intraperitoneal injection of the solvent of HT-267 solution as a control.

[11] = compound together with 10 nM CCK8
[12] = compound alone, 100% = 20 nM CCK8

Structure (SMILES): CCCC[C@H](NC(=O)[C@H](Cc1c[nH]c2ccccc12)NC(C)=O)C(=O)N[C@@H](CC(=O)O)C(=O)N[C@@H](Cc1cccc(Br)c1)C(N)=O [HT-177, Ac-Trp-Nle-Asp-Phe(3-Br)-NH2] (Ac-W[Nle]D[Phe(3-Br)]-NH2)
- blood-brain barrier crossing / green fluorescence signal of CCK-B receptor sensor [1]: crossed the blood-brain barrier and was bound to the CCK-B receptor
- basal field potential after administration (long-term potentiation) [2]: enhanced, and the enhancement lasted for more than one hour
- EC50 [3, 11]: 279 nM
- half-life (in vivo): 43.3 min
- proportion of exploration duration in the target quadrant vs control (memory-deficient mice [4]): significantly higher than that in the control group
- AUC(0-inf) [5]: 641 ng·h/mL
- Cmax [5]: 403 ng/mL
- Tmax [5]: 15 min
- recognition index of new objects vs control (memory-deficient mice [6]): significantly higher than that of the control group
- agonistic/antagonistic activity on CCK-B receptors (in words) ([7]; calcium signal): more active
- EC50 [7, 12]: 0.056 nM

Structure (SMILES): CCCC[C@H](NC(=O)[C@@H](Cc1c[nH]c2ccccc12)NC(C)=O)C(=O)N[C@@H](CC(=O)O)C(=O)N[C@@H](Cc1cccc(Br)c1)C(N)=O [HT-178, Ac-D-Trp-Nle-Asp-Phe(3-Br)-NH2] (Ac-[dW][Nle]D[Phe(3-Br)]-NH2)
- basal field potential after administration (long-term potentiation) [2]: enhanced, and the enhancement lasted for more than one hour
- EC50 [3, 11]: 528 nM
- proportion of exploration duration in the target quadrant vs control (memory-deficient mice [4]): significantly higher than that in the control group
- recognition index of new objects vs control (memory-deficient mice [6]): significantly higher than that of the control group
- EC50 [7, 12]: 2.81 nM

Structure (SMILES): CSCC[C@H](NC(=O)[C@@H](N)Cc1c[nH]c2ccccc12)C(=O)N[C@@H](CC(=O)O)C(=O)N[C@@H](Cc1ccccc1)C(N)=O [CCK4, Trp-Met-Asp-Phe-NH2, reference compound]
- concentration in blood samples (below detection limitation) [8]: < 50 ng/mL
- evasion latency in positioning navigation experiment vs control (senile wild-type mice): shorter than that of the control group
- spatial exploration tracks in space exploration experiment (senile wild-type mice): more spatial exploration tracks at the original position of the platform
- half-life [9]: less than 5 minutes
- proportion of exploration duration in the target quadrant vs control (memory-deficient mice [4]): significantly higher than that in the control group
- proportion of exploration duration in the target quadrant vs control [10]: significantly higher than the control group
- spatial exploration tracks in space exploration experiment [10]: more spatial exploration tracks at the original position of the platform
- evasion latency in positioning navigation experiment vs control ([10]; CCK4 four times a day 10 days, HT-267 once a day 8 days): shorter than that of the control group

Structure (SMILES): CSCC[C@H](NC(=O)[C@H](Cc1c[nH]c2ccccc12)NC(C)=O)C(=O)N[C@@H](CC(=O)O)C(=O)N[C@@H](CCCCN)C(N)=O [HT-194, Ac-Trp-Met-Asp-Lys-NH2] (Ac-WMDK-NH2)
- EC50 [3, 11]: 2220 nM
- EC50 ([7]; compound alone, bound in μM): > 10000 nM

Structure (SMILES): CSCC[C@H](NC(=O)[C@H](Cc1c[nH]c2ccccc12)NC(C)=O)C(=O)N[C@@H](CC(=O)O)C(=O)N[C@@H](Cc1c[nH]c2ccccc12)C(N)=O [HT-193, Ac-Trp-Met-Asp-Trp-NH2] (Ac-WMDW-NH2)
- EC50 [3, 11]: 57 nM
- EC50 [7, 12]: 0.814 nM

Structure (SMILES): CCCC[C@H](NC(=O)[C@@H](Cc1c(C)[nH]c2ccccc12)NC(C)=O)C(=O)N[C@@H](CC(=O)O)C(=O)N[C@@H](Cc1cn(C)c2ccccc12)C(N)=O [HT-234, Ac-(2-Me-Trp)-Nle-Asp-(1-Me-Trp)-NH2]
- EC50 ([3]; in presence of 10 nM CCK8): 4000 nM
- EC50 ([7]; Fluo-8 calcium flux, 100% control = 20 nM CCK8): 5460 nM
